Assay results from patent US20230085307A1, “PYRIDAZINONE COMPOUND AND HERBICIDE” (NISSAN CHEMICAL CORPORATION, priority 2019, published 2023).

Legend:
oval-leafed pondweed = assay: Test Example 1: herbicidal activity, application before weed generation under submerged conditions (Table 16, symbol C); assay type: in vivo, oval-leafed pondweed (Monochoria vaginalis); conditions: 320 g/ha applied herbicide
Procedure, shortened: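 Submerged Wagner pots (alluvial soil, 4 cm water) sown with weed seeds and planted with 2.5-leaf rice seedlings; emulsifiable concentrate diluted in water applied to water surface on sowing day. Held in greenhouse at 25-30 °C; injury scored 0-5 by herbicidal rate after three weeks.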

Japanese bulrush = assay: Test Example 2: herbicidal activity, application during weed generation under submerged conditions (Table 17, symbol B); assay type: in vivo, Japanese bulrush (Schoenoplectus juncoides); conditions: AAH 320 g/ha; application during weed generation, submerged conditions
Procedure, shortened: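 3-wk visual-criteria score after one water-surface dose. Emulsion formulation, water-diluted to set rate; applied at 1–2 leaf stage; alluvial soil, 4 cm standing water; seeds co-sown; greenhouse 25–30° C.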

southern crabgrass [1] = assay: Test Example 4: herbicidal effect by soil treatment (Table 19, symbol F); assay type: in vivo, southern crabgrass (Digitaria ciliaris); conditions: for F: southern crabgrass, herbicidal effect rating: amount of applied herbicide 320 g/ha
Procedure, shortened: (§1)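 In this soil treatment, the formulated compound reached the seeds only through the soil: seeds were buried about 1.5 cm deep in sterilized diluvial soil, then the diluted emulsion was sprayed over the surface. After three weeks at 25° C. to 30° C. in a greenhouse, effects were graded on criteria from an earlier test.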

green foxtail = assay: Test Example 4: herbicidal effect by soil treatment (Table 19, symbol G); assay type: in vivo, green foxtail (Setaria viridis); conditions: for G: green foxtail, herbicidal effect rating: amount of applied herbicide 320 g/ha
Procedure, shortened: as §1

barnyard grass = assay: Test Example 4: herbicidal effect by soil treatment (Table 19, symbol H); assay type: in vivo, barnyard grass (Echinochloa crus-galli); conditions: for H: barnyard grass, herbicidal effect rating: amount of applied herbicide 320 g/ha
Procedure, shortened: as §1

wild oat = assay: Test Example 4: herbicidal effect by soil treatment (Table 19, symbol I); assay type: in vivo, wild oat (Avena fatua); conditions: for I: wild oat, herbicidal effect rating: amount of applied herbicide 320 g/ha
Procedure, shortened: as §1

blackgrass = assay: Test Example 4: herbicidal effect by soil treatment (Table 19, symbol J); assay type: in vivo, blackgrass (Alopecurus myosuroides); conditions: for J: blackgrass, herbicidal effect rating: amount of applied herbicide 320 g/ha
Procedure, shortened: as §1

velvetleaf [2] = assay: Test Example 4: herbicidal effect by soil treatment (Table 19, symbol M); assay type: in vivo, velvetleaf (Abutilon theophrasti); conditions: for M: velvetleaf, herbicidal effect rating: amount of applied herbicide 320 g/ha
Procedure, shortened: as §1

lambsquarters [3] = assay: Test Example 4: herbicidal effect by soil treatment (Table 19, symbol O); assay type: in vivo, lambsquarters (Chenopodium album); conditions: for O: lambsquarters, herbicidal effect rating: amount of applied herbicide 320 g/ha
Procedure, shortened: as §1

chickweed [4] = assay: Test Example 4: herbicidal effect by soil treatment (Table 19, symbol P); assay type: in vivo, common chickweed (Stellaria media); conditions: for P: chickweed, herbicidal effect rating: amount of applied herbicide 320 g/ha
Procedure, shortened: as §1

persian speedwell [5] = assay: Test Example 4: herbicidal effect by soil treatment (Table 19, symbol R); assay type: in vivo, Persian speedwell (Veronica persica); conditions: for R: persian speedwell, herbicidal effect rating: amount of applied herbicide 320 g/ha
Procedure, shortened: as §1

southern crabgrass [6] = assay: Test Example 5: herbicidal effect by foliage application, plastic box (Table 20, symbol F); assay type: in vivo, southern crabgrass (Digitaria ciliaris); conditions: foliage application, 320 g/ha, evaluated three weeks after application
Procedure, shortened: (§2)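 Plants were sown into sterilized diluvial soil under about 1.5 cm cover and kept in a greenhouse at 25° C. to 30° C. Fourteen days on, foliage received an even spray of the diluted emulsion. Herbicidal or crop effect was judged three weeks afterwards.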

windgrass = assay: Test Example 5: herbicidal effect by foliage application, plastic box (Table 20, symbol L); assay type: in vivo, windgrass (Apera spica-venti); conditions: foliage application, 320 g/ha, evaluated three weeks after application
Procedure, shortened: as §2

velvetleaf [7] = assay: Test Example 5: herbicidal effect by foliage application, plastic box (Table 20, symbol M); assay type: in vivo, velvetleaf (Abutilon theophrasti); conditions: foliage application, 320 g/ha, evaluated three weeks after application
Procedure, shortened: as §2

lambsquarters [8] = assay: Test Example 5: herbicidal effect by foliage application, plastic box (Table 20, symbol O); assay type: in vivo, lambsquarters (Chenopodium album); conditions: foliage application, 320 g/ha, evaluated three weeks after application
Procedure, shortened: as §2

chickweed [9] = assay: Test Example 5: herbicidal effect by foliage application, plastic box (Table 20, symbol P); assay type: in vivo, common chickweed (Stellaria media); conditions: foliage application, 320 g/ha, evaluated three weeks after application
Procedure, shortened: as §2

persian speedwell [10] = assay: Test Example 5: herbicidal effect by foliage application, plastic box (Table 20, symbol R); assay type: in vivo, Persian speedwell (Veronica persica); conditions: foliage application, 320 g/ha, evaluated three weeks after application
Procedure, shortened: as §2

| SMILES | Herbicidal effect on C: oval-leafed pondweed (grade 0-5) (oval-leafed pondweed) | herbicidal effect rating, B: Japanese bulrush (Japanese bulrush) | herbicidal effect on F: southern crabgrass (southern crabgrass [6]) | herbicidal effect on L: windgrass (windgrass) | herbicidal effect on M: velvetleaf (velvetleaf [7]) | herbicidal effect on O: lambsquarters (lambsquarters [8]) | herbicidal effect on P: chickweed (chickweed [9]) | herbicidal effect on R: persian speedwell (persian speedwell [10]) | F: southern crabgrass, herbicidal effect rating (southern crabgrass [1]) | G: green foxtail, herbicidal effect rating (green foxtail) | H: barnyard grass, herbicidal effect rating (barnyard grass) | I: wild oat, herbicidal effect rating (wild oat) | J: blackgrass, herbicidal effect rating (blackgrass) | M: velvetleaf, herbicidal effect rating (velvetleaf [2]) | O: lambsquarters, herbicidal effect rating (lambsquarters [3]) | P: chickweed, herbicidal effect rating (chickweed [4]) | R: persian speedwell, herbicidal effect rating (persian speedwell [5]) | also measured |
| --- | --- | --- | --- | --- | --- | --- | --- | --- | --- | --- | --- | --- | --- | --- | --- | --- | --- | --- |
| CCCC(=O)Oc1c(C)nn(C)c(=O)c1-c1c(-c2ccc3c(c2)OCO3)sc2ccc(F)cc12 [2-091] | 5 (Herbicidal rate of 90% or more (almost completely withered)) | 3 (Herbicidal rate of 40% or more and less than 70%) | 2 (Herbicidal rate of 20% or more and less than 40%) | 0 (Herbicidal rate of 5% or less (almost no effect)) | 5 (Herbicidal rate of 90% or more (almost completely withered)) | 5 (Herbicidal rate of 90% or more (almost completely withered)) | 5 (Herbicidal rate of 90% or more (almost completely withered)) | 5 (Herbicidal rate of 90% or more (almost completely withered)) |  |  |  |  |  |  |  |  |  | herbicidal effect rating, F: southern crabgrass (southern crabgrass [1]; 320 g/ha): 2 (Herbicidal rate of 20% or more and less than 40%); herbicidal effect rating, G: green foxtail (green foxtail; 320 g/ha): 3 (Herbicidal rate of 40% or more and less than 70%); herbicidal effect rating, H: barnyard grass (barnyard grass; 320 g/ha): 2 (Herbicidal rate of 20% or more and less than 40%); herbicidal effect rating, I: wild oat (wild oat; 320 g/ha): 0 (Herbicidal rate of 5% or less (almost no effect)); herbicidal effect rating, J: blackgrass (blackgrass; 320 g/ha): 0 (Herbicidal rate of 5% or less (almost no effect)); herbicidal effect rating, M: velvetleaf (velvetleaf [2]; 320 g/ha): 5 (Herbicidal rate of 90% or more (almost completely withered)); herbicidal effect rating, O: lambsquarters (lambsquarters [3]; 320 g/ha): 5 (Herbicidal rate of 90% or more (almost completely withered)); herbicidal effect rating, P: chickweed (chickweed [4]; 320 g/ha): 1 (Herbicidal rate of 5% or more and less than 20%); herbicidal effect rating, R: persian speedwell (persian speedwell [5]; 320 g/ha): 4 (Herbicidal rate of 70% or more and less than 90%) |
| CCCC(=O)Oc1c(C)nn(C)c(=O)c1-c1c(-c2ccc(Cl)cc2)sc2ccc(Cl)cc12 [2-100] | 2 (Herbicidal rate of 20% or more and less than 40%) | 0 (Herbicidal rate of 5% or less (almost no effect)) | 4 (Herbicidal rate of 70% or more and less than 90%) | 5 (Herbicidal rate of 90% or more (almost completely withered)) | 5 (Herbicidal rate of 90% or more (almost completely withered)) | 4 (Herbicidal rate of 70% or more and less than 90%) | 5 (Herbicidal rate of 90% or more (almost completely withered)) | 5 (Herbicidal rate of 90% or more (almost completely withered)) | 0 (Herbicidal rate of 5% or less (almost no effect)) | 0 (Herbicidal rate of 5% or less (almost no effect)) | 0 (Herbicidal rate of 5% or less (almost no effect)) | 0 (Herbicidal rate of 5% or less (almost no effect)) | 0 (Herbicidal rate of 5% or less (almost no effect)) | 0 (Herbicidal rate of 5% or less (almost no effect)) | 2 (Herbicidal rate of 20% or more and less than 40%) | 1 (Herbicidal rate of 5% or more and less than 20%) | 1 (Herbicidal rate of 5% or more and less than 20%) |  |
| COc1ccccc1-c1sc2ccc(Cl)cc2c1-c1c(O)c(C)nn(C)c1=O [2-101] | 3 (Herbicidal rate of 40% or more and less than 70%) | 3 (Herbicidal rate of 40% or more and less than 70%) | 2 (Herbicidal rate of 20% or more and less than 40%) | 4 (Herbicidal rate of 70% or more and less than 90%) | 5 (Herbicidal rate of 90% or more (almost completely withered)) | 5 (Herbicidal rate of 90% or more (almost completely withered)) | 5 (Herbicidal rate of 90% or more (almost completely withered)) | 5 (Herbicidal rate of 90% or more (almost completely withered)) | 3 (Herbicidal rate of 40% or more and less than 70%) | 2 (Herbicidal rate of 20% or more and less than 40%) | 3 (Herbicidal rate of 40% or more and less than 70%) | 0 (Herbicidal rate of 5% or less (almost no effect)) | 1 (Herbicidal rate of 5% or more and less than 20%) | 3 (Herbicidal rate of 40% or more and less than 70%) | 4 (Herbicidal rate of 70% or more and less than 90%) | 5 (Herbicidal rate of 90% or more (almost completely withered)) | 4 (Herbicidal rate of 70% or more and less than 90%) |  |
| Cc1nn(C)c(=O)c(-c2c(-c3ccc(C#N)cc3)sc3ccc(Cl)cc23)c1O [2-112] | 0 (Herbicidal rate of 5% or less (almost no effect)) | 0 (Herbicidal rate of 5% or less (almost no effect)) | 4 (Herbicidal rate of 70% or more and less than 90%) | 5 (Herbicidal rate of 90% or more (almost completely withered)) | 4 (Herbicidal rate of 70% or more and less than 90%) | 4 (Herbicidal rate of 70% or more and less than 90%) | 5 (Herbicidal rate of 90% or more (almost completely withered)) | 5 (Herbicidal rate of 90% or more (almost completely withered)) | 3 (Herbicidal rate of 40% or more and less than 70%) | 0 (Herbicidal rate of 5% or less (almost no effect)) | 0 (Herbicidal rate of 5% or less (almost no effect)) | 0 (Herbicidal rate of 5% or less (almost no effect)) | 3 (Herbicidal rate of 40% or more and less than 70%) | 4 (Herbicidal rate of 70% or more and less than 90%) | 5 (Herbicidal rate of 90% or more (almost completely withered)) | 5 (Herbicidal rate of 90% or more (almost completely withered)) | 5 (Herbicidal rate of 90% or more (almost completely withered)) |  |
